# From patent US10022356B2, “Compounds for treatment of cancer” (UNIVERSITY OF TENNESSEE RESEARCH FOUNDATION, priority 2013, dated 2018)
# Columns and labels:
# [1] = test system: A375 human melanoma xenograft; assay: A375 human melanoma xenograft in SHO nude mice; assay type: in vivo; settings: 25 mg/kg; after 31 days of treatment
# Description: FIG. 19 depicts in vivo study of ABI compounds. […] C57BL/6 mice bearing B16-F1 melanoma allograft (n=5 per group). Each mouse received 0.5×10^6 cells by s.c. injection into the flank. 30 μL i.p. daily treatments were started when tumor size reached ˜100 mm^3. […] SHO nude mice bearing an A375 human melanoma xenograft (n=5 per group). Each mouse received 2.5×10^6 cells by s.c. injection into the flank. 30 μL i.p. daily treatments were started when the tumor size reached ˜150 mm^3. Control, vehicle solution only; points, means; bars, SD. DTIC, (5-(3,3,-dimethyl-1-triazenyl)-imidazole-4-carboxamide, dacarbazine.
# Average body weight of all groups increased slightly throughout the experiment period.
# B16-F1 melanoma cells = assay: B16-F1 melanoma colony formation assay in soft agar; assay type: cell-based, mouse; settings: 14 days; tested 20, 100, 500 nM
# Description: B16-F1 melanoma cells were plated at a colony-forming density (2000 cells per well on six-well plates) on top of 0.8% base agar. Cells were grown in 0.4% agar together with DMEM medium supplemented with fetal bovine serum and an antibiotic-antimycotic solution at 37° C. in an atmosphere of 95% air and 5% CO2. […] Compounds were added to the media from 1 mM DMSO stock solutions, and a corresponding dilution of DMSO was used as control. Cells were grown for 14 days. Plates were photographed, and the number of colonies was measured by Artek 880 Automated Colony Counter (Artek Systems Corporation, Farmingdale, N.Y.).
# B16-F1 melanoma = B16-F1 melanoma tumors in C57/BL mice; assay type: in vivo; settings: after 13 days of treatment, C57BL/6 mice
# Description: C57BL/6 mice bearing B16-F1 melanoma allograft (n=5 per group). Each mouse received 0.5×10^6 cells by s.c. injection into the flank. 30 μL i.p. daily treatments were started when tumor size reached ˜100 mm^3. […] Control, vehicle solution only; points, means; bars, SD. DTIC, (5-(3,3,-dimethyl-1-triazenyl)-imidazole-4-carboxamide, dacarbazine.
# Female C57/BL mice, age 4-6 weeks, were purchased from Harlan Laboratories (Harlan Laboratories Inc., Indianapolis, Ind.). The animal housing met the Association for Assessment and Accreditation and Laboratory Animal Care specifications. All of the procedures were conducted in accordance with guidelines of our Institutional Animal Care and Use Committee.
# The cell suspension (100 μL) was injected subcutaneously in the right dorsal flank of each mouse. When tumor size reached about 100-150 mm^3, about 7 days after cell inoculation, all mice bearing tumors were divided into control and treatment groups based on tumor size (n=5 per group). Each group had similar average tumor size. Mice in control groups (negative control) were injected intraperitoneally with 50 μL vehicle solution only or DTIC at 60 mg/kg (positive control) once daily. Tumor volume was measured every 2 days with a traceable electronic digital caliper (Fisher Scientific, Inc., Pittsburgh, Pa.) and calculated using the formula a×b^2×0.5, where a and b represented the larger and smaller diameters, respectively. Tumor volume was expressed in cubic millimeters. Data were expressed as mean±SE for each group and plotted as a function of time. […] Animal activity and average body weight of each group were monitored during the entire experiment period to assess compound toxicity. At the end of treatment, all mice were euthanized by CO2 followed by cervical dislocation, and tumors were harvested for further studies.
# OVCAR-8 = assay: Growth inhibition, OVCAR-8; assay type: cell-based; settings: Homo sapiens, OVCAR-8, read-out: IC50 (nM), OVCAR-8
# [2] = test system: metastasis of melanoma to the lungs; assay: Melanoma lung metastasis model in mice; assay type: in vivo; settings: i.p. injection 5 days per week for 2 weeks (FIG. 28)
# Description: Panel A: Representative photos of lungs with melanoma nodules (black dots, n=8 per group). Treatment was i.p. injection 5 days per week for 2 weeks. Panel B: Number of melanoma nodules on each lung. […] Panel C: Mouse body weight changes during the experiment. Points: means; bars: SD. Control: vehicle solution only.
# WM164 = assay: SRB cell culture cytotoxicity assay, WM-164; assay type: cell-based, human; settings: 48 h
# B16-F1 = assay: SRB cell culture cytotoxicity assay, B16-F1; assay type: cell-based, mouse; settings: 48 h
# DU145/TXR = assay: Growth inhibition, DU145/TXR; assay type: cell-based; settings: RABI, Table 10A; read-out: DU145/TXR (nM), inhibitory effects
# PC-3 = assay: SRB cytotoxicity assay, PC-3; settings: read-out: PC3 (nM), inhibitory effects; RABI, Tables 10A/10B
# MDA-MB-435 = assay: SRB growth inhibition, MDA-MB-435 (sensitive parent melanoma line); assay type: cell-based, human; settings: Tables 11C, 11D; read-out: IC50 ± SEM (μm), MDA-MB-435
# LNCaP = assay: SRB cytotoxicity assay, LNCaP; assay type: cell-based, human; settings: Reversed aryl benzoyl imidazole (RABI), Tables 10A/10B; read-out: LNCaP (nM), inhibitory effects
# Du 145 = assay: SRB cytotoxicity assay, Du 145; assay type: cell-based, human; settings: RABI, Tables 10A/10B; read-out: DU145 (nM), inhibitory effects
# MDA-MB-435/LCC6MDR1 = assay: SRB growth inhibition, multidrug-resistant MDA-MB-435/LCC6MDR1; assay type: cell-based; settings: Tables 11C, 11D; read-out: IC50 ± SEM (μm), MDA-MB-435/LCC6MDR1
# PPC-1 = assay: SRB cytotoxicity assay, PPC-1; assay type: cell-based, human; settings: RABI, Tables 10A/10B; read-out: PPC1 (nM), inhibitory effects
# A375 = assay: SRB cell culture cytotoxicity assay, A375; assay type: cell-based, human; settings: Tables 11C, 11D; read-out: IC50 ± SEM (μm), A375
# [3] = Metabolic stability in human liver microsomes; settings: Table 13A; mean from duplicate studies
# [4] = ICR, Sprague-Dawley, beagle, mouse, in vivo
# Description: All compounds (10 mg/kg) were dissolved in DMSO/PEG300 (1/9) and administered by a single intravenously (i.v.) injection (50 μL) into the tail vein.
# in vivo = settings: nude, mouse, 20 mg/kg
smiles,measurement,setting,value
"O=C(c1ccc(F)cc1)c1c[nH]c(-c2ccc(Cl)cc2)n1 [12fb, (2-(4-chlorophenyl)-1H-imidazol-4-yl)(4-fluorophenyl)methanone]",melanoma tumor growth inhibition (TGI value),[1],69%
same,concentration showing effective inhibition of B16-F1 colony formation,B16-F1 melanoma cells,100 nM
same,melanoma tumor growth inhibition (TGI value),B16-F1 melanoma; 15 mg/kg,32%
same,melanoma tumor growth inhibition (TGI value),B16-F1 melanoma; 45 mg/kg,82%
same,IC50,OVCAR-8,47 nM
same,metastasis of melanoma to the lungs,[2],inhibition
COc1cc(C(=O)c2c[nH]c(-c3ccc(O)cc3)n2)cc(O)c1OC [12kc],IC50,WM164,6400 nM
same,IC50,B16-F1,5600 nM
COc1cc(C(=O)c2nc(-c3ccc(Cl)cc3)c[nH]2)cc(OC)c1OC [70c],IC50,DU145/TXR,121 nM
COc1cc(-c2c[nH]c(C(=O)c3ccccc3)n2)cc(OC)c1OC [70x],IC50,PC-3,632 nM
same,IC50,MDA-MB-435,4600 nM
same,IC50,LNCaP,195 nM
same,IC50,Du 145,1300 nM
same,IC50,MDA-MB-435/LCC6MDR1,5770 nM
same,IC50,PPC-1,408 nM
COc1cc(Cc2nc(-c3ccccc3)c[nH]2)cc(OC)c1OC [102a],IC50,A375,10200 ± 392 nM
COc1cc(C(=O)c2csc(Nc3ccc4[nH]ccc4c3)n2)cc(OC)c1OC [compound 55],half-life in human liver microsomes,[3],28 min
same,oral bioavailability rates among three species,[4],24-36%
same,Kp,in vivo,3.2
